Measured values published in PMC6017655, “In Silico and in Vitro-Guided Identification of Inhibitors of Alkylquinolone-Dependent Quorum Sensing in Pseudomonas aeruginosa” (Molecules : A Journal of Synthetic Chemistry and Natural …, 2018).
“Also recorded” adds a separate entry of the source. Where two headings read alike, the source gives them in different places.

What was measured:
[1] = test system: PqsR (pqsA promoter, PA14 mCTX::PpqsA-lux); test: Whole cell biosensor reporter assay, PA14 mCTX::PpqsA-lux; assay type: cell-based, Pseudomonas aeruginosa; conditions: for IC50: Mean ± SD, n = 3; for activity at 10 µM: PA14, read-out: PA14 Remaining Activity %; for PqsR inhibitory activity (in words), PA14: screen at 10 µM
Protocol: (§1) To determine the ability of the quinolines to inhibit PqsR functionality, the P. aeruginosa biosensor strains, PAO1-L and PA14, incorporating a chromosomal mCTX::PpqsA-lux transcriptional fusion, were used. These report on the activation of the pqsA promoter, regulated by PqsR [25]. PAO1-L and PA14 were chosen because they are genetically amenable and belong to the two major P. aeruginosa genomic groups. The quinolone compounds were incubated with the corresponding strain, and luminescence and optical density readings were recorded to monitor the effect of the quinolines on PqsR activity and bacterial growth, respectively. The compounds were screened at 10 µM concentration, and the activity was compared to a control of DMSO (0.1%) (Figure 3a). To be considered a hit, a threshold of at least 50% inhibition of the test compound, relative to the negative control had to be reached, without affecting bacterial growth. […] Concentration-response experiments were then carried out to determine the IC50 values (Figure 3b,c), which are summarised in Table 1.
(§2) Strains PA14 mCTX::PpqsA-lux and PAO1-L mCTX::PpqsA-lux were constructed using plasmid mini-CTX::PpqsA-lux, as previously described, and the assay was performed according to a published protocol. For screening, the compounds were tested at a concentration of 10 µM, which was prepared from a 10 mM stock, in DMSO.

[2] = test system: PqsR (pqsA promoter, PAO1-L mCTX::PpqsA-lux); test: Whole cell biosensor reporter assay, PAO1-L mCTX::PpqsA-lux; assay type: cell-based, Pseudomonas aeruginosa; conditions: for IC50: Mean ± SD, n = 3; for activity at 10 µM: PAO1, read-out: PAO1-L Remaining Activity %; for PqsR inhibitory activity (in words), PAO1-L: screen at 10 µM / dose-response
Protocol: as §1, §2

[3] = test system: PAO1-L; test: Bacterial growth (optical density) in reporter assay, PAO1-L; assay type: cell-based, Pseudomonas aeruginosa; conditions: compound vs DMSO control
Protocol: as §1
Figure 3 Whole bacterial cell-based P. aeruginosa compound screen for both PqsR and growth inhibition (a) Activity against PA14 (green) and PAO1-L (purple) PpqsA-lux reporter strains at 10 µM test compound; (b) and (c) Dose-response curves for active compounds against PA14 (b) and PAO1-L (c); (d) and (e) growth curves for PA14 (d) and PAO1-L (e) in the presence of compound or DMSO control.

[4] = test system: AQ production in PAO1-L; test: Alkylquinolone (HHQ, PQS, HQNO) production by LC-MS/MS, PAO1-L; assay type: cell-based, Pseudomonas aeruginosa; conditions: 3x IC50, 16 h, culture supernatant
Protocol: HQNO, can protect Staphylococcus aureus from vancomycin [31] and contributes to the environmental competitiveness of P. aeruginosa, through its activity as a potent inhibitor of the cytochrome bc1 complex. […] LC-MS/MS was used to quantify the major AQs HHQ, PQS and HQNO after incubation of the P. aeruginosa strains with the hit compounds, for 16 h. The assay was performed using both PAO1-L and PA14 strains which were treated with PqsR antagonists at concentrations three-fold higher than their IC50 values. The results obtained depended on the inhibitor and strain tested (Figure 5).
For each test sample, 100 µL of sterile filtered supernatant (the same preparation as for pyocyanin) was spiked with 10 µL of an internal standard solution (10 µM d4-PQS in MeOH), and diluted with water, to a total volume of 500 µL. Samples were then extracted three times with an 0.5 mL aliquot of ethyl acetate, vortex mixing the aqueous/organic mix for 2 min, then removing the organic phase once the layers had successfully partitioned. For each sample, the combined organic extracts were dried under vacuum and re-dissolved in 100 µL MeOH prior to analysis. For the LC-MS/MS analysis of supernatant extracts, the chromatography was achieved using a Shimadzu series 10AD VP LC system (Columbia, MD, USA). The LC column, maintained at 40 °C, was a Phenomenex Gemini C18 (3.0 µm, 100 × 3.0 mm) (Macclesfield, Cheshire, UK) with an appropriate guard column. Mobile phase A was 0.1% (v/v) formic acid in water containing 2 mM 2-picolinic acid, and mobile phase B 0.1% (v/v) formic acid in methanol. The flow rate throughout the chromatographic separation was 450 µL/min. After an injection of a 2 µL/sample, a binary gradient, beginning initially at 30% B, increased linearly to 99% B over 5 min. The composition remained at 99% B for 3 min, decreased to 30% B over 1 min, and stayed at this composition for 4 min, to allow for column equilibration. […] Where chromatographic peaks for HHQ, HQNO and PQS were detected, a peak area was determined, and analyte peak area/internal standard peak area calculated.

[5] = Plasma stability, rat; assay type: in vitro ADME; conditions: 37 °C, up to 2 h, read-out: Plasma Stability Rat t1/2
Protocol: (§3) Dilutions of a 10 mM test compound DMSO stock solution were prepared so that the final DMSO concentration was 1% v/v and the final test compound concentration tested was 1 µM. Following the addition of the test compound to plasma, the samples were pre-incubated for 10 min prior to the start of the incubation by the addition of the test compound. The test compound was incubated (n = 2; 1 µM final concentration) at 37 °C with plasma for up to 2 h. Aliquots were sampled at several time points and mixed with acetonitrile (containing internal standard) to terminate the reaction and precipitate the proteins. All the samples were mixed, centrifuged and the supernatants analysed by UPLC-MSMS. Parent disappearance and half-life (t 1/2) values were determined from the slope of the parent depletion curve. Control compounds (imidapril, enalapril, tenofovir and/or propantheline), were respectively included.

[6] = Plasma stability, human; assay type: in vitro ADME; conditions: 37 °C; for half-life at 1 µM: human, plasma, up to 2 h, read-out: Plasma Stability Human t 1/2
Protocol: as §3

[7] = Hepatic microsomal stability, human; assay type: in vitro ADME; conditions: liver microsomes, pH 7.4, 0.5 mg/mL protein, NADPH, 37 °C; for half-life at 1 µM: read-out: Microsomal Stability Human t1/2
Protocol: Dilutions of a 1 mM test compound DMSO stock solution were prepared in buffer (typically 0.01 M phosphate buffered saline (pH 7.4) so that the final DMSO concentration was 0.1% v/v and the final test compound concentration tested was 1 µM. Following addition of protein (0.5 mg/mL final) and NADPH, the samples were pre-incubated for 10 min prior to the start of the incubation by the addition of test compound. The test compounds were then incubated (n = 2; 1 µM final concentration) at 37 °C with tissue microsomes. Aliquots were sampled at several time points and mixed with acetonitrile (containing internal standard) to terminate the reaction and precipitate the proteins. All the samples were mixed, centrifuged and the supernatants analysed by UPLC-MS/MS. The intrinsic clearance (Clint) and half-life (t 1/2) values were determined from the slope of the parent depletion curve. Control compounds for low, moderate and high intrinsic clearance, respectively, for both human and rat microsomes, were included.

[8] = Pseudomonas aeruginosa, PA14, read-out: IC50 PA14, PpqsA-lux reporter
[9] = read-out: IC50 PA14, PpqsA-lux reporter
[10] = Pseudomonas aeruginosa, PAO1, read-out: IC50 PAO1-L, PpqsA-lux reporter

SMILES: CC(=O)N1N=C(c2ccccc2)CC1c1cccc(Nc2ccnc3cc(Cl)ccc23)c1 (stereo not shown) [IIa]
- IC50 [1, 8]: 3700 nM
- activity at 10 µM ([1]; Pseudomonas aeruginosa): 19.7 ± 1.9%
- IC50 [1, 9]: 4000 ± 1620 nM
- PqsR inhibitory activity (in words), PA14 [1]: strong PqsR inhibitory activity
- IC50 [2, 10]: 1500 nM
- activity at 10 µM ([2]; Pseudomonas aeruginosa): 31.6 ± 6.6%
- IC50 ([2]; read-out: IC50 PAO1-L, PpqsA-lux reporter): 1600 ± 290 nM
- PqsR inhibitory activity (in words), PAO1-L [2]: strong PqsR inhibitory activity
- Effect on bacterial growth, PAO1-L [3]: without interfering with bacterial growth
- Inhibition of AQ production (in words), PAO1-L [4]: moderate effect
- half-life at 1 µM [5]: > 4 h
- half-life at 1 µM [6]: 1.23 h
- microsomal CLint at 1 µM [7]: 73 µL/min/mg
- half-life at 1 µM [7]: 0.317 h

SMILES: O=CN1N=C(c2ccccc2)CC1c1cccc(Nc2ccnc3cc(Cl)ccc23)c1 (stereo not shown) [Ia]
- IC50 [1, 8]: 2200 nM
- activity at 10 µM ([1]; Pseudomonas aeruginosa): 18.7 ± 1.98%
- IC50 [1, 9]: 2300 ± 510 nM
- PqsR inhibitory activity (in words), PA14 [1]: strong PqsR inhibitory activity
- IC50 [2, 10]: 12400 ± 1790 nM
- activity at 10 µM ([2]; Pseudomonas aeruginosa): 25.8 ± 1.17%
- PqsR inhibitory activity (in words), PAO1-L [2]: strong PqsR inhibitory activity; also recorded: modest activity
- Effect on bacterial growth, PAO1-L [3]: without interfering with bacterial growth
- Inhibition of AQ production (in words), PAO1-L [4]: strongly-inhibited AQ production
- half-life at 1 µM [5]: > 4 h
- Plasma stability (in words), human plasma ([6]; 1 µM): greatest plasma stability
- half-life at 1 µM [6]: 2.2 h
- microsomal CLint at 1 µM [7]: 60.3 µL/min/mg
- half-life at 1 µM [7]: 0.388 h
